In US6504058B1 (priority 1997, dated 2003):

Legend:
[1] = test system: Erysiphe graminis f. sp. tritici; assay: Test A: wheat powdery mildew, preventive spray on wheat seedlings, disease rating; type: in vivo, Erysiphe graminis f. sp. tritici (on wheat seedlings); conditions: 200 ppm test suspension sprayed to run-off (equivalent to 500 g/ha) on wheat seedlings; 100 = 100% disease control, 0 = no control; # = significant activity
Excerpt: (§1) Test compounds were first dissolved in acetone in an amount equal to 3% of the final volume and then suspended at a concentration of 200 ppm in purified water containing 250 ppm of the surfactant Trem® 014 (polyhydric alcohol esters). The resulting test suspensions were then used in the following test. Spraying these 200 ppm test suspensions to the point of run-off on the test plants is the equivalent of a rate of 500 g/ha.
The test suspension was sprayed to the point of run-off on wheat seedlings. The following day the seedlings were inoculated with a spore dust of Erysiphe graminis f. sp. tritici, (the causal agent of wheat powdery mildew) and incubated in a growth chamber at 20° C. for 7 days, after which disease ratings were made.
(§2) Results for Tests A-E are given in Table A. In the table, a rating of 100 indicates 100% disease control and a rating of 0 indicates no disease control (relative to the controls). A dash (-) indicates no test results. ND indicates disease control not determined due to phytotoxicity. # indicates significant activity.

Puccinia recondita = assay: Test B: wheat leaf rust, preventive spray on wheat seedlings, disease rating; type: in vivo, Puccinia recondita (on wheat seedlings); conditions: 200 ppm test suspension sprayed to run-off (equivalent to 500 g/ha) on wheat seedlings; 100 = 100% disease control, 0 = no control; # = significant activity
Excerpt: as §1
The test suspension was sprayed to the point of run-off on wheat seedlings. The following day the seedlings were inoculated with a spore suspension of Puccinia recondita (the causal agent of wheat leaf rust) and incubated in a saturated atmosphere at 20° C. for 24 h, and then moved to a growth chamber at 20° C. for 6 days, after which disease ratings were made.
as §2

Pyricularia oryzae = type: in vivo, Pyricularia oryzae (on rice seedlings); conditions: 200 ppm test suspension sprayed to run-off (equivalent to 500 g/ha) on rice seedlings; 100 = 100% disease control, 0 = no control; # = significant activity
Phytophthora infestans = type: in vivo, Phytophthora infestans (on tomato seedlings); conditions: 200 ppm test suspension sprayed to run-off (equivalent to 500 g/ha) on tomato seedlings; 100 = 100% disease control, 0 = no control; # = significant activity
Botrytis cinerea = assay: Test E: gray mold, preventive spray on cucumber seedlings, disease rating; type: in vivo, Botrytis cinerea (on cucumber seedlings); conditions: 200 ppm test suspension sprayed to run-off (equivalent to 500 g/ha) on cucumber seedlings; 100 = 100% disease control, 0 = no control; # = significant activity
Excerpt: as §1
The test suspension was sprayed to the point of run-off on cucumber seedlings. The following day the seedlings were inoculated with a spore suspension of Botrytis cinerea (the causal agent of gray mold on many crops) and incubated in a saturated atmosphere at 20° C. for 48 h, and moved to a growth chamber at 20° C. for 5 days, after which disease ratings were made.
as §2

Compound | Test A disease control rating (wheat powdery mildew) [1] | Test B disease control rating (wheat leaf rust) (Puccinia recondita) | Test C disease control rating (rice blast) (Pyricularia oryzae) | Test D disease control rating (potato and tomato late blight) (Phytophthora infestans) | Test E disease control rating (gray mold) (Botrytis cinerea)
CC(COc1ccc(F)cc1C#N)NC(=O)C1(C)CC(C)(Cl)C1 (centres unmarked) [compound 40] | 0 (a rating of 0 indicates no disease control (relative to the controls)) | 0 (a rating of 0 indicates no disease control (relative to the controls)) | 0 (a rating of 0 indicates no disease control (relative to the controls)) | 62% | 0 (a rating of 0 indicates no disease control (relative to the controls))
CC(NC(=O)C1(C)CC(C)(Br)C1)c1ccc(Cl)cc1Cl (centres unmarked) [compound 68] | 0 (a rating of 0 indicates no disease control (relative to the controls)) | 0 (a rating of 0 indicates no disease control (relative to the controls)) | 97# % | 24% | 0 (a rating of 0 indicates no disease control (relative to the controls))
CC(NC(=O)C1(C)CC(C)(Cl)C1)c1ccc(Cl)cc1Cl (centres unmarked) [compound 19] | 33% | 0 (a rating of 0 indicates no disease control (relative to the controls)) | 100# (a rating of 100 indicates 100% disease control) | 0 (a rating of 0 indicates no disease control (relative to the controls)) | 0 (a rating of 0 indicates no disease control (relative to the controls))
CC(COc1cc(F)ccc1F)NC(=O)C1(C)CC(C)(Cl)C1 (centres unmarked) [Compound 30] | 0 (a rating of 0 indicates no disease control (relative to the controls)) | 0 (a rating of 0 indicates no disease control (relative to the controls)) | 100# (a rating of 100 indicates 100% disease control) | 0 (a rating of 0 indicates no disease control (relative to the controls)) | 94# %
CC(COc1cc(F)ccc1F)NC(=O)C1(C)CC(C)(Br)C1 (centres unmarked) [compound 57] | 90# % | 0 (a rating of 0 indicates no disease control (relative to the controls)) | 86# % | 0 (a rating of 0 indicates no disease control (relative to the controls)) | 0 (a rating of 0 indicates no disease control (relative to the controls))
CC(COc1cc(F)ccc1Cl)NC(=O)C1(C)CC(C)(Br)C1 (centres unmarked) [compound 55] | 83# % | 0 (a rating of 0 indicates no disease control (relative to the controls)) | 74% | 0 (a rating of 0 indicates no disease control (relative to the controls)) | 0 (a rating of 0 indicates no disease control (relative to the controls))
CC(COc1cc(F)ccc1F)NC(=O)C1(C)CC(C)(Cl)C1 (centres unmarked) [compound 29] | 0 (a rating of 0 indicates no disease control (relative to the controls)) | 86# % | 100# (a rating of 100 indicates 100% disease control) | 0 (a rating of 0 indicates no disease control (relative to the controls)) | 0 (a rating of 0 indicates no disease control (relative to the controls))
